The text below walks through data of paper PMC7926726, “The Wound Healing Peptide, AES16-2M, Ameliorates Atopic Dermatitis In Vivo” (Molecules, 2021).

Ends that are not written are not given here.

The series can be described thus: Water solubility of the peptide. It counts as physicochemical. The note with it: in water; analysed by Anygen; previously described [16] and updated in this study. On the procedure: To investigate whether the wound healing peptide, AES16-2M, could improve AD, Dermatophagoides farina (Df) body-induced AD model was established, and 10 mg/kg of AES16-2M was used as the optimal dose determined by preliminary experiments. […] Since increased IgE and TSLP production is closely related to AD pathology, the total IgE levels from sera were determined.
AES16-2M was synthesized and analyzed for purity, water solubility, and molecular weight by Anygen (Gwang Ju, Korea). Peptide with purity over 95% was used for this study.

REGRT [AES16-2M]: the water solubility result is listed as “over 10.0 mg/mL”.
